We go through 32 compounds from patent US12122800B2, “Inhibitors of MEK kinase” (Kinnate Biopharma Inc., priority 2022, dated 2024).

For this test, the system named is A375 pERK. Briefly: Cellular assay monitoring phosphorylation of ERK (HTRF phospho-ERK Thr202/Tyr204) in A-375 cells. Type of test: cell-based. The settings on record: Homo sapiens, melanoma derived cell line A-375 (BRAF V600 activating mutation), 1 hour incubation with compound. How it is done: To determine the effect of the MEK inhibitor compounds disclosed herein on cellular MAPK signaling downstream of MEK, an assay monitoring phosphorylation of ERK was used. Melanoma derived cell line A-375, which harbors a BRAF V600 activating mutation was cultured and maintained as specified by the supplier (ATCC: Cat #CRL-1619; American Type Culture Collection; Manassas, VA 20110). Cells were seeded at 8000 cells/well in 24 μL growth media in a 384-well plate and allowed to adhere at 37° C. with 5% CO2 overnight. The following day, compounds were serially diluted into 10-point, 3-fold dilution curves in 384 well plates. Compound was transferred to cell plates using Echo550 such that the final concentration range was 0.508 nM to […] in […] with 0.1% DMSO being used as negative control. Cells were incubated with compounds for 1 hour at 37° C. with […]. Cells were lysed by addition of 8 μL 4× lysis buffer provided with HTRF kit (Advanced phospho-ERK (Thr202/Tyr204) cellular kit; Cisbio; Cat #64AERPEH) plus 1× protease/phosphatase inhibitor cocktail. 20 μL lysate was transferred to HTRF plate followed by 2.5 μL each of anti-ERK1/2-Europium/Terbium Cryptate and anti-phospho-ERK1/2 antibody solutions per manufacturer's instructions and incubated. Specific signal was measured at […] on a Perkin Elmer Envision 2105 and the ratios used to calculate IC50 values within the Dotmatics Knowledge Solutions Studies curve fitting environment (Dotmatics, Bishops Stortford, UK, CM23) and are presented in Table 8.
`CC[P@@](C)(=O)c1ccncc1Nc1ccc(I)cc1F` (single isomer, unassigned) [Example 8]: the IC50 lay within 10 to 100 nM.

As to `CC[P@](C)(=O)c1ccncc1Nc1ccc(I)cc1F` (single isomer, unassigned) [Example 9], the IC50 lay within 10 to 100 nM.

For the compound `CC[P@@](C)(=O)c1ccncc1Nc1ccc(Br)cc1F` (single isomer, unassigned) [Example 16], the half-maximal inhibitory concentration (IC50) lay in the range of 100 to 1000 nM.

On to `CC[P@](C)(=O)c1ccncc1Nc1ccc(Br)cc1F` (single isomer, unassigned) [Example 17], for which the IC50 was 100 to 1000 nM.

For the compound `C#Cc1ccc(Nc2cnccc2[P@](C)(=O)CC)c(F)c1` (single isomer, unassigned) [Example 19], the half-inhibitory concentration (IC50) lay in the range of 100 to 1000 nM.

Take `C#Cc1ccc(Nc2cnccc2[P@@](C)(=O)CC)c(F)c1` (single isomer, unassigned) [Example 20]: the half-maximal inhibitory concentration (IC50) was in the range of 100 to 1000 nM.

On to `CP(C)(=O)c1ccncc1Nc1ccc(I)cc1F` [Example 1, 4-(Dimethylphosphoryl)-N-(2-fluoro-4-iodophenyl)pyridin-3-amine], for which the IC50 was more than 10 nM.

`CP(C)(=O)c1ccc(F)cc1Nc1ccc(I)cc1F` [Example 2, 2-(Dimethylphosphoryl)-5-fluoro-N-(2-fluoro-4-iodophenyl)aniline]: the concentration for half-maximal inhibition (IC50) is not above 1000 nM.

Turning to `CP(C)(=O)c1ccncc1Nc1ccc(I)c(F)c1F` [Example 3, N-(2,3-Difluoro-4-iodophenyl)-4-(dimethylphosphoryl)pyridin-3-amine], the IC50 was in the range of 10 to 100 nM.

As to `CP(C)(=O)c1ccc(F)c(F)c1Nc1ccc(I)cc1F` [Example 4, 6-(Dimethylphosphoryl)-2,3-difluoro-N-(2-fluoro-4-iodophenyl)aniline], the concentration for half-maximal inhibition (IC50) was not above 1000 nM.

As for `O=P1(c2ccncc2Nc2ccc(I)cc2F)CCCC1` [Example 5, 1-(3-((2-Fluoro-4-iodophenyl)amino)pyridin-4-yl)phospholane 1-oxide], the IC50 lay within 10 to 100 nM.

For `CCP(=O)(CC)c1ccncc1Nc1ccc(I)cc1F` [Example 6, 4-(Diethylphosphoryl)-N-(2-fluoro-4-iodophenyl)pyridin-3-amine], the half-inhibitory concentration (IC50) fell in the range of 10 to 100 nM.

For the compound `CCP(C)(=O)c1ccncc1Nc1ccc(I)cc1F` (centres unmarked) [Example 7, 4-[Ethyl(methyl)phosphoryl]-N-(2-fluoro-4-iodophenyl)pyridin-3-amine], the IC50 lay within 10 to 100 nM.

With `CP(C)(=O)c1ccncc1Nc1ccc(Br)cc1F` [Example 10, N-(4-Bromo-2-fluorophenyl)-4-(dimethylphosphoryl)pyridin-3-amine], the IC50 was 100 to 1000 nM.

Turning to `CCP(=O)(CC)c1ccncc1Nc1ccc(Br)cc1F` [Example 11, N-(4-bromo-2-fluorophenyl)-4-(diethylphosphoryl)pyridin-3-amine], the IC50 was 100 to 1000 nM.

With `O=P1(c2ccncc2Nc2ccc(Br)cc2F)CCCC1` [Example 12, 1-(3-((4-Bromo-2-fluorophenyl)amino)pyridin-4-yl)phospholane 1-oxide], the IC50 is 100 to 1000 nM.

Consider `CP(C)(=O)c1c(Cl)cncc1Nc1ccc(I)cc1F` [Example 13, 5-Chloro-4-(dimethylphosphoryl)-N-(2-fluoro-4-iodophenyl)pyridin-3-amine], for which the IC50 is more than 10 nM.

With `C#Cc1ccc(Nc2cnccc2P(C)(C)=O)c(F)c1` [Example 14, (3-((4-Ethynyl-2-fluorophenyl)amino)pyridin-4-yl)dimethylphosphine oxide], the IC50 was in the range of 10 to 100 nM.

As for `C#Cc1ccc(Nc2cnccc2P2(=O)CCCC2)c(F)c1` [Example 15, 1-(3-((4-Ethynyl-2-fluorophenyl)amino)pyridin-4-yl)phospholane 1-oxide], the concentration for half-maximal inhibition (IC50) fell in the range of 100 to 1000 nM.

Turning to `C#Cc1ccc(Nc2cnccc2P(=O)(CC)CC)c(F)c1` [Example 18, 4-(Diethylphosphoryl)-N-(4-ethynyl-2-fluorophenyl)pyridin-3-amine], the IC50 is 100 to 1000 nM.

In the case of `CP(C)(=O)c1cc(F)ncc1Nc1ccc(I)cc1F` [Example 21, (2-Fluoro-5-((2-fluoro-4-iodophenyl)amino)pyridin-4-yl)dimethylphosphine oxide], the IC50 lay in the range of 100 to 1000 nM.

With `CP(C)(=O)c1ccncc1Nc1ccc(I)cc1` [Example 22, 4-(Dimethylphosphoryl)-N-(4-iodophenyl)pyridin-3-amine], the IC50 is 10 to 100 nM.

On to `CP(C)(=O)c1ccncc1Nc1ccc(C2CC2)cc1F` [Example 23, N-(4-Cyclopropyl-2-fluorophenyl)-4-(dimethylphosphoryl)pyridin-3-amine], for which the IC50 was 10 to 100 nM.

As for `CP(C)(=O)c1c(F)cncc1Nc1ccc(I)cc1F` [Example 24, 4-(Dimethylphosphoryl)-5-fluoro-N-(2-fluoro-4-iodophenyl)pyridin-3-amine], the IC50 was more than 10 nM.

Turning to `CP(C)(=O)c1ccnc(F)c1Nc1ccc(I)cc1F` [Example 25, (2-Fluoro-3-((2-fluoro-4-iodophenyl)amino)pyridin-4-yl)dimethylphosphine oxide], the IC50 was 10 to 100 nM.

As to `CP(C)(=O)c1c(F)cncc1Nc1ccc(Br)cc1Cl` [Example 26, N-(4-bromo-2-chlorophenyl)-4-(dimethylphosphoryl)-5-fluoropyridin-3-amine], the half-inhibitory concentration (IC50) was more than 10 nM.

Regarding `CP(C)(=O)c1ccncc1Nc1ccc(Br)cc1Cl` [Example 27, N-(4-bromo-2-chlorophenyl)-4-(dimethylphosphoryl) pyridin-3-amine], the IC50 fell in the range of 100 to 1000 nM.

Take `CP(C)(=O)c1c(Cl)cncc1Nc1ccc(Br)cc1Cl` [Example 28, N-(4-Bromo-2-chlorophenyl)-5-chloro-4-(dimethylphosphoryl)pyridin-3-amine]: the half-maximal inhibitory concentration (IC50) is 100 to 1000 nM.

Consider `CP(C)(=O)c1c(Cl)cncc1Nc1ccc(Br)cc1F` [Example 29, (3-((4-Bromo-2-fluorophenyl)amino)-5-chloropyridin-4-yl)dimethylphosphine oxide], for which the IC50 fell in the range of 10 to 100 nM.

`Cc1cncc(Nc2ccc(I)cc2F)c1P(C)(C)=O` [Example 30, 4-(Dimethylphosphoryl)-N-(2-fluoro-4-iodophenyl)-5-methylpyridin-3-amine]: the IC50 is more than 10 nM.

Regarding `C#Cc1ccc(Nc2cncc(F)c2P(C)(C)=O)c(F)c1` [Example 31, 4-(Dimethylphosphoryl)-N-(4-ethynyl-2-fluorophenyl)-5-fluoropyridin-3-amine], the IC50 is 10 to 100 nM.

Regarding `CP(C)(=O)c1c(Cl)cncc1Nc1ccc(C2CC2)cc1F` [Example 32, (3-Chloro-5-((4-cyclopropyl-2-fluorophenyl)amino)pyridin-4-yl)dimethylphosphine oxide], the IC50 fell in the range of 10 to 100 nM.
